This is an account of results in article PMC7481482, “Development of Anthraquinone Derivatives as Ectonucleoside Triphosphate Diphosphohydrolase (NTPDase) Inhibitors With Selectivity for NTPDase2 and NTPDase3” (Frontiers in Pharmacology, 2020).

pIC50: −log10 of the molar value.

As a reminder, the pIC50 is −log10 of the IC50, conventionally taken in molar units.

In test [1] the target is T1, human NTPDase3 (Homo sapiens, UniProt O75355).
T1 construct: expressed in transfected cells; host or cells: COS-7 cells (membrane preparation)
T1 sequence (O75355 1-529): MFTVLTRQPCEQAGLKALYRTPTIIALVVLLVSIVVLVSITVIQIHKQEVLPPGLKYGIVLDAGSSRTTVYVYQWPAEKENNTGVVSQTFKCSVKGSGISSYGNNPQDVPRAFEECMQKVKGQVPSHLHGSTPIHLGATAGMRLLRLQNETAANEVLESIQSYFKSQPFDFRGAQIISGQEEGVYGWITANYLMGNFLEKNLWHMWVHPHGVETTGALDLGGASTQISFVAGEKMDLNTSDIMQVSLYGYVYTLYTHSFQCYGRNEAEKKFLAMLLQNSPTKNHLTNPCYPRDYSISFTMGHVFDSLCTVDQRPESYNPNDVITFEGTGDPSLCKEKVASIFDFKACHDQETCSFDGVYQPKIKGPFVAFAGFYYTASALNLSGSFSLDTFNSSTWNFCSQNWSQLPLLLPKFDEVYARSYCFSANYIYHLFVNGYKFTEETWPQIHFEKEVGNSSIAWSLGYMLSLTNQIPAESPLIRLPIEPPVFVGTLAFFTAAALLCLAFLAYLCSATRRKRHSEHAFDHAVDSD
Briefly: Malachite green assay, human NTPDase3. It is filed as biochemical. As to conditions: 2 μM compound; 100 µM ATP; COS-7 membrane preparation; read-out: % inhibition at 2 μM concentration, NTPDase3. Put shortly:
(§1)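 COS-7 membranes expressing each NTPDase were preincubated with compound for 5 min at 37 °C, pH 7.4 HEPES buffer with 2 mM CaCl2/1 mM MgCl2. ATP was 50 µM for NTPDase1 and 100 µM for -2, -3, -8; reaction ran 15 min at 37 °C. Released phosphate read by malachite green at 600 nm; screen at 2 µM, IC50 over 0.03–30 µM in 2% DMSO.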

For test [2], the system named is rat NTPDase3. The conditions noted are these: rat enzyme; ref Baqi et al., 2009b; cited from earlier work.
Test [3] deals with T2, human NTPDase1 (Homo sapiens, UniProt P49961).
T2 construct: expressed in transfected cells; host or cells: COS-7 cells (membrane preparation)
T2 sequence (P49961 1-510): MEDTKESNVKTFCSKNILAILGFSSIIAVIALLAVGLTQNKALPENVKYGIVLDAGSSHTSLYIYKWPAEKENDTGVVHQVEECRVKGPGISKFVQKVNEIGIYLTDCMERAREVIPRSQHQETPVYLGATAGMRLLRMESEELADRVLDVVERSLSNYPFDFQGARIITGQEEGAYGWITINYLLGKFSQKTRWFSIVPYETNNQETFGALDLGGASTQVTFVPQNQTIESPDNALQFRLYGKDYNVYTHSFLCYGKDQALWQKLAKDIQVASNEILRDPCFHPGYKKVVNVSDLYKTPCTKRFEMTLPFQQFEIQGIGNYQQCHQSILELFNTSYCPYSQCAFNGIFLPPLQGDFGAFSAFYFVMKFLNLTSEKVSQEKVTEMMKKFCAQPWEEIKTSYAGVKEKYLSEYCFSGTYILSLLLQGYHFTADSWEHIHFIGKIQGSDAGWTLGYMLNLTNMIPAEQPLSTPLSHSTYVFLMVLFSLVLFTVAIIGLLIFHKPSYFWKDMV
As to the kind of experiment: Malachite green assay, human NTPDase1. The conditions noted are these: 2 μM compound; 50 µM ATP; COS-7 membrane preparation; read-out: % inhibition at 2 μM concentration, NTPDase1. The test is classed as biochemical. Put shortly: as §1

Turning to `Nc1c(S(=O)(=O)O)cc(Nc2cccc3ccccc23)c2c1C(=O)c1ccccc1C2=O` [Compound 15], the values for the inhibition at 2 µM in test [1] and in test [3] were -4% and -19%, respectively. In addition, the pIC50 in test [2] is 5.82.
